In patent US20090220604A1, “AMINO ACIDS IN MICELLE PREPARATION” (ANGIOTECH INTERNATIONAL AG, priority 2002, published 2009):

Experiment: Recovery of paclitaxel added to mixtures after heating to 55° C. for 1 hour (reverse phase HPLC with UV detection)
Assay type: physicochemical
Procedure: The desirability of removing unreacted starting materials and/or acidic reaction by-products can be seen by reference to the data in Table 1. […] According to the data, when paclitaxel is combined with a diblock copolymer having up to 2% residual monomer and up to 0.2 μmol/mg acid content (expressed as the number of protons titrated in a solution prepared by dissolving 1 mg of diblock copolymer in water), after heating, only 95% of the paclitaxel initially added to the mixture could be recovered, as quantified using a reverse phase HPLC assay with UV detection and a taxane optimized C18 column.

Paclitaxel recovered after heating (combined with diblock copolymer having up to 2% residual monomer and up to 0.2 μmol/mg acid content): 95%
Paclitaxel recovered after heating (combined with methoxypolyethylene glycol, no measured acidic components and no DL-lactide monomer): 99%
Paclitaxel recovered after heating (diblock copolymer with greatly reduced quantities of residual monomer and acidic components): 98%
Structure (SMILES): CC(=O)O[C@H]1C(=O)[C@@]2(C)[C@H]([C@H](OC(=O)c3ccccc3)[C@]3(O)C[C@H](OC(=O)[C@H](O)[C@@H](NC(=O)c4ccccc4)c4ccccc4)C(C)=C1C3(C)C)[C@]1(OC(C)=O)CO[C@@H]1C[C@@H]2O [paclitaxel]
